Where two headings read alike, the source gives them in different places.
Key:
[1] = biological target: K-ras G12D (Homo sapiens, UniProt P01116, G12D); test: G-LISA Ras activation assay, 293H cells transfected with G12D mutant; assay type: cell-based; settings: 1 hour treatment
Experimental: (§1) 293H cells were seeded in 6-wells at 0.6×10^6 cells per well and transfected next day with 5 μg of Ras wild-type, or G12C, G12D or G12V mutant DNA plasmid vector using transfection reagent Lipofectamine 3000. Next day cells were treated with 3.125-50 μM of Ras compounds for 1 hour. Wild-type transfected cells were subsequently treated with 100 ng/ml EGF for 2 minutes. Cells were washed once in ice-cold PBS, lysed in complete lysis buffer on ice, and processed by G-LISA according to Cytoskeleton protocol.
(§2) In-cell selectivity of the compounds presented herein against a specific K-ras mutant form can also be tested as shown in the following exemplary experiment. 293H cells were seeded in 6-wells and transfected next day with 5 μg of Ras wild-type, or G12C, G12D or G12V mutant DNA plasmid vector. Next day cells were treated with 3.125-50 μM of Ras compounds for 1 hour. Wild-type transfected cells were subsequently treated with 100 ng/ml EGF for 2 minutes. Cells were washed once in ice-cold PBS, lysed in complete lysis buffer on ice, and processed by G-LISA according to Cytoskeleton protocol. FIG. 1 depicts exemplary results.
as §1, with “In still further experiments, the inventors tested selected compounds in a G-LISA assay to compare IC50 values for wild-type and various mutant K-Ras (G12D, G12V) using the following general protocol: 293H” for “293H”

[2] = biological target: K-ras G12V (GTP) (Homo sapiens, UniProt P01116, G12V); test: SPR assay (surface plasmon resonance); assay type: binding; settings: 25° C., 8% DMSO
Experimental: Selected compounds were also tested for selective binding to wild type and mutant forms of K-ras in the active and non-active state using surface plasmon resonance, and exemplary results are shown in Table 4.
The running buffer in all surface plasmon resonance experiments was 10 mM HEPES pH 7.4, 150 mM NaCl, 0.1% (v/v) Tween-20, 1 mM MgCl2, 8% DMSO. Experiments were carried out on the SensiQ Pioneer optical biosensor. The flow rate was set at 50 μL/min and the temperature was 25° C. kRAS protein was immobilized to the Nickel-NTA charged surface of the SensiQ HisCap chip (sensiqtech.com) giving a yield of 4000 RU. Small molecules were prepared in 100% DMSO and further diluted to 8% DMSO in running buffer. The small molecules were injected using the Taylor diffusion gradient injection mode (OneStep®, see e.g., Evaluation of Taylor dispersion injections: Determining kinetic/affinity interaction constants and diffusion coefficients in label-free biosensing, John G. Quinn, Analytical Biochemistry (2011)). Buffer blanks were injected for double referencing purposes. Data processing and model fitting were performed using Qdat.

[3] = biological target: K-ras G12V (Homo sapiens, UniProt P01116, G12V); test: G-LISA Ras activation assay, 293H cells transfected with G12V mutant; assay type: cell-based; settings: 1 hour treatment
Experimental: as §1, §2
as §1, with “In still further experiments, the inventors tested selected compounds in a G-LISA assay to compare IC50 values for wild-type and various mutant K-Ras (G12D, G12V) using the following general protocol: 293H” for “293H”

[4] = Table 1, G-LISA, 293H transfected, read-out: IC50 (μM) G12D
[5] = Table 5, IC50, 293H transfected, read-out: G-LISA (G12D)

| IC50 [1, 4] | IC50 [1, 5] | Kd [2] | SPR Assay G12V (GTP) Rmax [2] | IC50 ([3]; Table 1, G-LISA, 293H transfected, read-out: IC50 (μM) G12V) | IC50 ([3]; Table 5, IC50, 293H transfected, read-out: G-LISA (G12V)) | SMILES |
| --- | --- | --- | --- | --- | --- | --- |
| > 25 µM | > 25 µM | – | – | – | – | Cc1nc(C)c(C(=O)Nc2nc(-c3ccc4c(c3)CCC(=O)N4)cs2)s1 [Compound 4662] |
| > 25 µM | > 25 µM | – | – | – | – | Cc1nc(C)c(C(=O)Nc2nc(-c3ccc(NC(=O)c4ccccc4)cc3)cs2)s1 [Compound 4665] |
| 12 µM | 11.9 µM | – | – | – | – | O=C1CCc2cc(-c3csc(NC(=O)c4cnc(C5CC5)s4)n3)ccc2N1 [Compound 4683] |
| > 25 µM | > 25 µM | – | – | – | – | O=C1CCc2cc(-c3csc(NC(=O)c4cnc(-c5ccccc5)s4)n3)ccc2N1 [Compound 4684] |
| > 25 µM | > 25 µM | – | – | – | – | N#Cc1ncc(C(=O)Nc2nc(-c3ccc4c(c3)CCC(=O)N4)cs2)s1 [Compound 4685] |
| 11 µM | 11 µM | 11.4 µM | Rmax = 94.2 ± 0.2 | – | – | CC(=O)N1CCCc2cc(-c3csc(NC(=O)c4sc(C)nc4C)n3)ccc21 [Compound 4686] |
| 19 µM | 19 µM | 6.6 µM | Rmax = 72.6 ± 0.1 | – | – | Cc1nc(C)c(C(=O)Nc2nc(-c3ccc4c(c3)CCC(=O)N4C)cs2)s1 [Compound 4687] |
| > 25 µM | > 25 µM | 43 µM | Rmax = 203 ± 3 | – | – | O=C1CCc2cc(-c3csc(NC(=O)c4scnc4C4CC4)n3)ccc2N1 [Compound 4735] |
| > 25 µM | > 25 µM | 10.1 µM | Rmax = 85.3 ± 0.1 | – | – | CCc1ncsc1C(=O)Nc1nc(-c2ccc3c(c2)CCC(=O)N3)cs1 [Compound 4747] |
| 21 µM | 21 µM | – | – | – | – | Cc1nc(C)c(C(=O)Nc2nc(-c3ccc4c(c3)CNC(=O)N4)cs2)s1 [Compound 4748] |
| > 25 µM | 36 µM | 6.08 µM | Rmax = 75.9 ± 0.1 | – | – | Cc1nc(C)c(C(=O)Nc2nc(-c3cc4c5c(c3)CCN5C(=O)CC4)cs2)s1 [Compound 4749] |
| > 25 µM | 27 µM | – | – | 17 µM | 17 µM | Cc1nc(C)c(C(=O)Nc2nc(-c3ccc4c(c3)CCC(=O)N4)c(C)s2)s1 [Compound 4802] |
| > 25 µM | 71 µM | – | – | – | – | CCc1sc(NC(=O)c2sc(C)nc2C)nc1-c1ccc2c(c1)CCC(=O)N2 [Compound 4803] |
| > 25 µM | > 25 µM | – | – | – | – | O=C1CCc2cc(-c3csc(NCc4ccccc4)n3)ccc2N1 [Compound 4824] |
| > 25 µM | > 25 µM | – | – | – | – | O=C1CCc2cc(-c3csc(NC(=O)c4ccccc4)n3)ccc2N1 [Compound 4825] |
| > 25 µM | > 25 µM | – | – | – | – | O=C1CCc2cc(-c3csc(NC(=O)c4ncccn4)n3)ccc2N1 [Compound 4826] |
| > 25 µM | > 25 µM | – | – | – | – | Cc1nc(C(=O)Nc2nc(-c3ccc4c(c3)CCC(=O)N4)cs2)sc1C [Compound 4828] |
| > 25 µM | > 25 µM | – | – | – | – | O=C1CCc2cc(-c3csc(Nc4ncccn4)n3)ccc2N1 [Compound 4829] |
